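Exposure lasted 48 hours, with cells grown in 96-well plates and compounds tested at five concentrations. GI50: concentration for 50% inhibition of growth.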 The source made the active and inactive calls. No stated cut-off is given here; in the data, active = GI50 up to about 1.1 µM and inactive = higher.

Some test systems named below: HCT-15; OVCAR-4; UACC-257; HT-29; OVCAR-5; U-251; UO-31; OVCAR-3; K562; ACHN; SF-539; NCI-H522; CCRF-CEM; HL-60; LOX IMVI.
Holding throughout (test): inhibition of tumour cell growth, NCI panel, 48 h

Regarding `CC(C)(C)c1cc(C(OCCl)(C(F)(F)F)C(F)(F)F)c2c(c1)C(C(F)(F)F)(C(F)(F)F)OC21c2ccccc2C(=O)c2ccccc21`, the GI50 was more than 100 µM in the experiment on HCT-15; > 100 µM (inactive) in the experiment on OVCAR-4; > 100 µM (inactive) in the experiment with UACC-257; > 100 µM (inactive) with HT-29; > 100 µM (inactive) in the experiment on OVCAR-5; > 100 µM (inactive) in the experiment on U-251. In addition, the GI50 in the experiment on UO-31, with OVCAR-3, in the experiment on K562, in the experiment with ACHN, with SF-539 and with NCI-H522 was > 100 µM (inactive) each time.

Consider `C[N+](C)(C)CC(=O)N/N=C(/Cc1nc2c3c(ccc2nc1O)C(=O)c1ccccc1C3=O)C(=O)Nc1ccc(Cl)c(Cl)c1`, for which the GI50 in the experiment on OVCAR-4 was 87.9 µM (inactive); in the experiment on CCRF-CEM it was 4.16 µM (inactive); in the experiment with UACC-257, > 100 µM (inactive); with HT-29, > 100 µM (inactive); in the experiment on OVCAR-5 it was > 100 µM (inactive); in the experiment with UO-31 it was 6.84 µM (inactive). Moreover, the GI50 in the experiment on OVCAR-3 was 30.2 µM (inactive); with HL-60, 8.15 µM (inactive); in the experiment on K562, 53.5 µM (inactive); in the experiment with ACHN it was 24 µM (inactive); in the experiment with SF-539 it was 93.1 µM (inactive); in the experiment on NCI-H522, 22.9 µM (inactive).

As for `COc1ccccc1NC(=O)C1=C(C)NC(C)=C(C(=O)Nc2ccccc2OC)C1c1cccc2ccccc12`, the GI50 with HCT-15 was 28.4 µM; in the experiment with OVCAR-4 it was 2.77 µM (inactive); with CCRF-CEM it was 20.7 µM (inactive); with UACC-257, > 100 µM (inactive); with HT-29 it was 82.8 µM (inactive); in the experiment on OVCAR-5, > 100 µM (inactive). The GI50 is > 100 µM (inactive) in the experiment on U-251; 13.7 µM (inactive) in the experiment with UO-31; 64 µM (inactive) with OVCAR-3; > 100 µM (inactive) in the experiment with LOX IMVI; 29.9 µM (inactive) with HL-60; 13.3 µM (inactive) in the experiment with K562. The GI50 was 11.7 µM (inactive) in the experiment on ACHN and > 100 µM (inactive) in the experiment on SF-539.

As for `Cc1cc(C)nc(NS(=O)(=O)c2ccc(Nc3c4ccc(Cl)cc4nc4c(C(=O)Nc5ccc(S(=O)(=O)N=C(N)N)cc5)cccc34)cc2)n1`, the GI50 with HCT-15 is more than 100 µM; in the experiment on OVCAR-4, > 100 µM (inactive); with CCRF-CEM, 20.6 µM (inactive); in the experiment with UACC-257, > 100 µM (inactive); in the experiment with HT-29, > 100 µM (inactive); in the experiment with OVCAR-5, > 100 µM (inactive). The GI50 is 87.5 µM (inactive) in the experiment on U-251; > 100 µM (inactive) with UO-31; 96.6 µM (inactive) in the experiment on OVCAR-3; 49.9 µM (inactive) in the experiment with LOX IMVI; 73.5 µM (inactive) in the experiment with K562; 96.6 µM (inactive) in the experiment on ACHN. The GI50 in the experiment with SF-539 is > 100 µM (inactive); in the experiment with NCI-H522 it was 34.4 µM (inactive).

Consider `Cc1nc(-c2nc(C)c(C(=O)/C=C/c3ccc([N+](=O)[O-])cc3)s2)sc1C(=O)/C=C/c1ccc([N+](=O)[O-])cc1`, for which the GI50 is more than 100 µM in the experiment on HCT-15; > 10 µM (inactive) in the experiment on CCRF-CEM; > 100 µM (inactive) with UACC-257; > 100 µM (inactive) in the experiment on HT-29; > 100 µM (inactive) in the experiment with OVCAR-5; > 100 µM (inactive) with U-251. The GI50 in the experiment with UO-31, in the experiment with OVCAR-3, with LOX IMVI, in the experiment with HL-60, in the experiment with K562 and in the experiment on ACHN was > 100 µM (inactive) each time. Further, the GI50 in the experiment with SF-539 was > 100 µM (inactive).

For the compound `CC12Oc3ccc4ccccc4c3C1c1c(ccc3ccccc13)O2` (configuration not stated), the GI50 in the experiment with OVCAR-4 is 35.9 µM (inactive); in the experiment on CCRF-CEM, > 100 µM (inactive); with HT-29, > 100 µM (inactive); with OVCAR-5 it was > 100 µM (inactive); with U-251 it was > 100 µM (inactive); with UO-31 it was > 100 µM (inactive). For the same compound, the GI50 in the experiment with OVCAR-3 is > 100 µM (inactive); with LOX IMVI, > 100 µM (inactive); in the experiment on K562, > 100 µM (inactive); in the experiment with ACHN it was > 100 µM (inactive); in the experiment on SF-539 it was 78.2 µM (inactive); in the experiment with NCI-H522 it was > 100 µM (inactive).

As to `COC(=O)CCCN(C)c1nc(N)n[nH]1`, the GI50 with HCT-15 was more than 100 µM; in the experiment on OVCAR-4, > 100 µM (inactive); in the experiment with CCRF-CEM, > 100 µM (inactive); in the experiment with UACC-257, > 100 µM (inactive); in the experiment with HT-29 it was > 100 µM (inactive); in the experiment on OVCAR-5, > 100 µM (inactive). In addition, the GI50 with U-251, in the experiment with UO-31, in the experiment with OVCAR-3, with LOX IMVI, in the experiment with HL-60 and in the experiment with K562 was > 100 µM (inactive) throughout. Moreover, the GI50 in the experiment on ACHN and with SF-539 was > 100 µM (inactive) each time.

For the compound `C/C(=N\NC(=N)N)C(CN1CCCCC1)C(c1ccccc1)c1c(O)c2ccccc2oc1=O` (configuration not stated), the GI50 in the experiment on HCT-15 is more than 100 µM; in the experiment on OVCAR-4, > 100 µM (inactive); in the experiment with CCRF-CEM, > 100 µM (inactive); in the experiment on UACC-257 it was > 100 µM (inactive); with HT-29, > 100 µM (inactive); with OVCAR-5, > 100 µM (inactive). Also, the GI50 in the experiment with OVCAR-3, in the experiment with LOX IMVI, in the experiment with HL-60, in the experiment on K562, in the experiment on ACHN and in the experiment on SF-539 was > 100 µM (inactive) each time. Moreover, the GI50 with NCI-H522 is 43.6 µM (inactive).

Regarding `Cc1ccc(C2=NN(C)COC2C(F)(F)F)cc1` (configuration not stated), the GI50 in the experiment with HCT-15 is more than 100 µM; with OVCAR-4, > 100 µM (inactive); in the experiment on CCRF-CEM, > 100 µM (inactive); in the experiment on UACC-257, > 100 µM (inactive); in the experiment on HT-29 it was > 100 µM (inactive); in the experiment with OVCAR-5, > 100 µM (inactive). Further, the GI50 in the experiment on U-251, with UO-31, in the experiment on OVCAR-3, in the experiment on HL-60, in the experiment on K562 and in the experiment with ACHN was > 100 µM (inactive) in each case. For the same compound, the GI50 in the experiment on SF-539 and in the experiment with NCI-H522 was > 100 µM (inactive) each time.

In the case of `CCOC(=O)N1CCN(C=S)CC1`, the GI50 in the experiment with HCT-15 is more than 100 µM; with CCRF-CEM, > 100 µM (inactive); in the experiment on UACC-257, > 100 µM (inactive); in the experiment with HT-29, > 100 µM (inactive); with OVCAR-5 it was > 100 µM (inactive); with U-251, > 100 µM (inactive). In addition, the GI50 with UO-31, in the experiment with OVCAR-3, in the experiment on LOX IMVI, in the experiment with HL-60, in the experiment on K562 and with ACHN was > 100 µM (inactive) in each case. Moreover, the GI50 with SF-539 and in the experiment with NCI-H522 was > 100 µM (inactive) in each case.

On to `O=C(/C=C/c1ccccc1Cl)c1ccc(Cl)cc1Cl`, for which the GI50 in the experiment with HCT-15 was 11.7 µM; in the experiment on OVCAR-4 it was 15.6 µM (inactive); with CCRF-CEM it was 4.02 µM (inactive); with UACC-257, 15.9 µM (inactive); in the experiment on HT-29, 14.3 µM (inactive); with OVCAR-5, 17.1 µM (inactive). In addition, the GI50 was 12.9 µM (inactive) in the experiment on U-251; 21.7 µM (inactive) in the experiment with UO-31; 17.7 µM (inactive) with OVCAR-3; 16.5 µM (inactive) in the experiment on HL-60; 3.02 µM (inactive) in the experiment on K562; 18.1 µM (inactive) in the experiment on ACHN. Besides, the GI50 in the experiment on SF-539 was 23 µM (inactive).

For the compound `COc1ccc(CC2(Cc3ccc(OC)cc3)CCOC2=O)cc1`, the GI50 in the experiment on OVCAR-4, in the experiment on CCRF-CEM, in the experiment on UACC-257, with HT-29, in the experiment on OVCAR-5 and in the experiment on U-251 was > 100 µM (inactive) throughout. Also, the GI50 is > 100 µM (inactive) in the experiment with UO-31; > 100 µM (inactive) in the experiment with OVCAR-3; > 100 µM (inactive) in the experiment with HL-60; > 100 µM (inactive) in the experiment on K562; 94.8 µM (inactive) with ACHN; 17.7 µM (inactive) with NCI-H522.

`CCOC(=O)NC(=O)c1cn(CCN2CCN(c3ncnc4[nH]cnc34)CC2)c(=O)[nH]c1=O`: the GI50 is more than 100 µM in the experiment with HCT-15; > 100 µM (inactive) with CCRF-CEM; > 100 µM (inactive) in the experiment on UACC-257; > 100 µM (inactive) in the experiment with HT-29; > 100 µM (inactive) in the experiment with OVCAR-5; > 100 µM (inactive) in the experiment with U-251. Moreover, the GI50 in the experiment on UO-31, in the experiment on OVCAR-3, in the experiment on LOX IMVI, in the experiment on HL-60, in the experiment on K562 and with ACHN was > 100 µM (inactive) throughout. Moreover, the GI50 in the experiment on SF-539 and in the experiment on NCI-H522 was > 100 µM (inactive) each time.

With `[N-]=[N+]=N[C@H]1C[C@@H](CO)O[C@H]1n1cnc2c(N)ncnc21`, the GI50 in the experiment with OVCAR-4, with UACC-257, in the experiment with HT-29, in the experiment on OVCAR-5, with U-251 and in the experiment with UO-31 was > 100 µM (inactive) in each case. The GI50 with OVCAR-3, with LOX IMVI, in the experiment on HL-60, in the experiment on ACHN, with SF-539 and in the experiment with NCI-H522 was > 100 µM (inactive) each time.

`COC(=O)c1c(CC(=O)OC(C)C)cc2n(c1=O)Cc1c-2nc2ccccc2c1OC`: the GI50 in the experiment with HCT-15 is more than 100 µM; in the experiment on OVCAR-4, > 100 µM (inactive); in the experiment on CCRF-CEM, > 100 µM (inactive); in the experiment on UACC-257, > 100 µM (inactive); with HT-29, > 100 µM (inactive); in the experiment on OVCAR-5, > 100 µM (inactive). Also, the GI50 in the experiment on U-251, with UO-31, in the experiment with OVCAR-3, in the experiment on LOX IMVI, in the experiment with HL-60 and with K562 was > 100 µM (inactive) throughout. Moreover, the GI50 with ACHN and in the experiment on NCI-H522 was > 100 µM (inactive) each time.

(Values after ChEMBL document CHEMBL1201862, “PubChem BioAssay data set” (2004).)
